Experimental data reported in patent publication US6277872A, “Oxadiazoles, processes for their preparation and their use as medicaments” (Boehringer Ingelheim KG, priority 1996, dated 2001).

Key:
AMPA receptor = experiment: Inhibition of the cainate-induced signal at the AMPA receptor, electrophysiology on neuronal cells (Patch-Clamp-Method); assay type: cell-based; conditions: test concentration of 100 μM
Procedure: The tests were carried out at a test concentration of 100 μM.

[1] = system: "Na+ channel site 2"-binding site; experiment: Binding to the Na+ channel site 2 binding site ([3H]-BTX); conditions: test concentration typically 10 μM
Procedure: (§1) The tests were typically carried out at a test concentration of 10 μM.

Histamine H1 receptor = molecular target: T1, Histamine H1 receptor (Cavia porcellus, UniProt P31389); experiment: Histamine H1 receptor binding study; conditions: test concentration typically 10 μM; read-out: H1 Inh. [%]
T1 construct: from tissue
T1 sequence (P31389 whole entry): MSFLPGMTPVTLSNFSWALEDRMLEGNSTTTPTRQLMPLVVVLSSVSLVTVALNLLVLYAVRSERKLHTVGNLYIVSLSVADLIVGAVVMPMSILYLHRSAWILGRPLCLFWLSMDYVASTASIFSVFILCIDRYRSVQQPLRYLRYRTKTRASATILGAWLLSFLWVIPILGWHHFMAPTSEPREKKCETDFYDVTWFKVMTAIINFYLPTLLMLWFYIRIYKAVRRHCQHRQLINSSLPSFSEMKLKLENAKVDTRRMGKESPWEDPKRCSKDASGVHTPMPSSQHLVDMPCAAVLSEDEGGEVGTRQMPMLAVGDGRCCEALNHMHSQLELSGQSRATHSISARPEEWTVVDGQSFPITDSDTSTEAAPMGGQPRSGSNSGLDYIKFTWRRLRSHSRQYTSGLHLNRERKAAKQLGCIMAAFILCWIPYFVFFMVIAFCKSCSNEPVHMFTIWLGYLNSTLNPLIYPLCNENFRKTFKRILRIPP
From the text: Table 5 summarises the inhibitory values on the above receptors:

Sigma receptor = Sigma receptor binding study; conditions: test concentration typically 10 μM
Procedure: as §1

Na+-channel Inh. [%] ([3H]-BTX) [1] | inhibition at 10 µM (Histamine H1 receptor) [%] | Sigma Inh. [%] (Sigma receptor) | SMILES | AMPA Inh. [%] (inhibiting the cainate-induced signal at the AMPA receptor) (AMPA receptor)
91 | 92 | 84 | CN(C)CCOc1ccccc1-c1nc(-c2ccc(Cl)cc2Cl)no1 [Example 28, 5-{2-[2-(N,N-Dimethylamino)-ethyl]oxy-phenyl}-3-(2,4-dichloro-phenyl)-1,2,4-oxadiazole] | 87
82 | 94 | 77 | CN(C)CCOc1ccccc1-c1nc(Cc2ccccc2)no1 [Example 31, 5-{2-[2-(N,N-Dimethylamino)-ethyl]oxy-phenyl}-3-benzyl-1,2,4-oxadiazole] | 23
84 | 87 | 77 | Cc1ccccc1-c1noc(-c2ccccc2OCCN(C)C)n1 [Example 33] | 87
88 | 96 | 75 | CN(C)CCOc1ccccc1-c1nc(-c2ccccc2F)no1 [Example 34] | 97
93 | 93 | 82 | Cc1cccc(-c2noc(-c3ccccc3OCCN(C)C)n2)c1 [Example 37, 5-{2-[2-(N,N-Dimethylamino)-ethyl]oxy-phenyl}-3-(3-methyl-phenyl)-1,2,4-oxadiazole] | 93
88 | 99 | 76 | CN1CCN(c2ccccc2-c2nc(-c3ccccc3)no2)CC1 [Example 40, 5-[2-(4-methylpiperazin-1yl)-phenyl]-3-phenyl-1,2,4-oxadiazole] | 37
89 | 94 | 57 | CN(C)CCOc1ccccc1-c1nc(-c2cccs2)no1 [Example 42, 5-{2-[2-(N,N-Dimethylamino)-ethyl]oxy-phenyl}-3-(2-thienyl)-1,2,4-oxadiazole] | 79
72 | 86 | 0 | CN(C)CCOc1ccccc1-c1nc(-c2ccccn2)no1 [Example 43, 5-{2-[2-(N,N-Dimethylamino)-ethyl]oxy-phenyl}-3-(2-pyridyl)-1,2,4-oxadiazole] | 77
89 | 74 | 93 | CN(C)CCOc1ccccc1-c1nc(-c2cccc(C(F)(F)F)c2)no1 [Example 44, 5-{2-[2-(N,N-Dimethylamino)-ethyl]oxy-phenyl}-3-(3-rifluoromethylphenyl)-1,2,4-oxadiazole] | 62
79 | 98 | 85 | CN(C)CCOc1ccccc1-c1nc(-c2ccc(F)cc2)no1 [Example 45, 5-{2-[2-(N,N-Dimethylamino)-ethyl]oxy-phenyl}-3-(4-fluoro-phenyl)-1,2,4-oxadiazole] | 64
74 | 82 | 56 | CN(C)CCOc1ccccc1-c1nc(-c2ccc(N)cc2)no1 [Example 47, 5-{2-[2-(N,N-Dimethylamino)-ethyl]oxy-phenyl}-3-(4-amino-phenyl)-1,2,4-oxadiazole] | 59
62 | 95 | 68 | CN(C)CCOc1ccccc1-c1nc(-c2ccsc2)no1 [Example 54, 5-{2-[2-(N,N-Dimethylamino)-ethyl]oxy-phenyl}-3-(3-thienyl)-1,2,4-oxadiazole] | 

More lines, now with the values behind:

SMILES | Na+-channel Inh. [%] ([3H]-BTX) [1] | inhibition at 10 µM (Histamine H1 receptor) [%] | Sigma Inh. [%] (Sigma receptor) | AMPA Inh. [%] (inhibiting the cainate-induced signal at the AMPA receptor) (AMPA receptor)
CN(C)CCOc1ccccc1-c1noc(-c2ccccc2)n1 [Example 3, 3-{2-[2-(N,N-Dimethylamino)ethyl]oxy-phenyl}-5-phenyl-1,2,4-oxadiazole] | 91 | 98 | 62 | 96
c1ccc(-c2noc(-c3ccccc3OCCN3CCOCC3)n2)cc1 [Example 4, 5-{2-[2-(Morpholino)ethyl]oxy-phenyl}-3-phenyl-1,2,4-oxadiazole] | 79 | 44 | 41 | 71
CN1CCN(CCOc2ccccc2-c2nc(-c3ccccc3)no2)CC1 [Example 5, 5-{2-[2-(4-methylpiperazin-1-yl)ethyl]oxy-phenyl}-3-phenyl-1,2,4-oxadiazole] | 78 | 74 | 90 | 84
CN(C)CCOc1ccccc1-c1nc(-c2ccc(O)cc2)no1 [Example 8, 5-{2-[2-(N,N-Dimethylamino)ethyl]oxy-phenyl}-3-(4-hydroxyphenyl)-1,2,4-oxadiazole] | 87 | 94 | 59 | 97
CCN(CC)CCOc1ccccc1-c1nc(-c2ccccc2)no1 [Example 12, 5-{2-[2-(N,N-Diethylamino)ethyl]-oxy-phenyl}-3-phenyl-1,2,4-oxadiazole] | 90 | 87 | 68 | 85
c1ccc(-c2noc(-c3ccccc3OCCN3CCCC3)n2)cc1 [Example 13, 5-{2-[2-(N-Pyrrolidinyl)ethyl]oxy-phenyl}-3-phenyl-1,2,4-oxadiazole] | 95 | 91 | 83 | 96
c1ccc(-c2noc(-c3ccccc3OCCN3CCCCC3)n2)cc1 [Example 14, 5-{2-[2-(N-Piperidinyl)ethyl]oxy-phenyl}-3-phenyl-1,2,4-oxadiazole] | 100 | 87 | 93 | 96
Cc1ccc(-c2noc(-c3ccccc3OCCN(C)C)n2)cc1 [Example 17, 5-{2-[2-(N,N-Dimethylamino)-ethyl]oxy-phenyl}-3-(4-methyl-phenyl)-1,2,4-oxadiazole] | 80 | 78 | 65 | 97
CN(C)CCOc1ccccc1-c1nc(-c2ccc(Cl)cc2)no1 [Example 18, 5-{2-[2-(N,N-Dimethylamino)-ethyl]oxy-phenyl}-3-(4-chlor-phenyl)-1,2,4-oxadiazole] | 85 | 94 | 80 | 80
COc1ccc(-c2noc(-c3ccccc3OCCN(C)C)n2)cc1 [Example 19, 5-{2-[2-(N,N-Dimethylamino)-ethyl]oxy-phenyl}-3-(4-methoxy-phenyl)-1,2,4-oxadiazole] | 83 | 95 | 74 | 86
c1ccc(CNCCOc2ccccc2-c2nc(-c3ccccc3)no2)cc1 [Example 20, 5-{2-[2-(N-benzylamino)ethyl]-oxy-phenyl}-3-phenyl-1,2,4-oxadiazole] | 100 | 19 | 84 | 90
CC(C)NCCOc1ccccc1-c1nc(-c2ccccc2)no1 [Example 21, 5-{2-[2-(N-Isopropylamino)ethyl]-oxy-phenyl}-3-phenyl-1,2,4-oxadiazole] | 100 | 75 | 76 | 98
CNCCOc1ccccc1-c1nc(-c2ccccc2)no1 [Example 22, 5-{2-[2-(N-methylamino)ethyl]-oxy-phenyl}-3-phenyl-1,2,4-oxadiazole] | 94 | 64 | 78 | 94
CCNCCOc1ccccc1-c1nc(-c2ccccc2)no1 [Example 23, 5-{2-[2-(N-ethylamino)ethyl]-oxy-phenyl}-3-phenyl-1,2,4-oxadiazole] | 99 | 63 | 79 | 93
NCCOc1ccccc1-c1nc(-c2ccccc2)no1 [Example 24, 5-[2-(2-aminoethyl)oxy-phenyl]-3-phenyl-1,2,4-oxadiazole] | 89 | 27 | 52 | 96
CN(C)CCOc1ccccc1-c1nc(-c2ccccc2Cl)no1 [Example 27, 5-{2-[2-(N,N-Dimethylamino)-ethyl]oxy-phenyl}-3-(2-chloro-phenyl)-1,2,4-oxadiazole] | 79 | 90 | 84 | 91
CN(C)CCOc1ccccc1-c1nc(C2CC2)no1 [Example 55, 5-{2-[2-(N,N-Dimethylamino)-ethyl]oxy-phenyl}-3-cyclopropyl-1,2,4-oxadiazole] |  |  |  | 81
